Like-named read-outs stand apart in the source and are kept apart here. Blank lines part the entries; values can stand above or below the compound they belong to.
Legend:
[1] = test system: primary human fibroblasts from patients with Leigh syndrome; experiment: Oxidative stress-induced cell death (BSO) assay, Leigh patient fibroblasts; format: cell-based
Description: (§1) To determine the effective concentration of the compounds (the concentrations that protect patient cells against oxidative stress-induced cell death) the applicant established an assay using stressed primary human fibroblasts from patients with Leigh syndrome, MELAS or LHON diseases. Utilising the inherent oxidative stress of fibroblasts from patients with mitochondrial disease, their oxidative burden was further increased by depleting cellular glutathione with an inhibitor of glutathione synthesis, L-buthionine-(S,R)-sulfoximine (BSO). […] Cells were seeded at a density of 3000 cells/well in a 96-well format and incubated with increasing concentrations of compounds in combination with BSO (100 μM, Sigma-aldrich). One day after treatment, the cells were washed twice and stained with a solution of 5 μM calcein-AM (Life technologies C3100MP) during 25 min in 199 medium without phenol red (Life technologies, 11043-023) at room temperature. After 2 washes with PBS (Phosphate buffered saline) the plate was read on a fluorescence plate reader (Fluostar Omega, BMG labtech) and the percentage of cell viability determined as a function of fluorescence intensity.

[2] = test system: primary human fibroblasts from patients with MELAS; experiment: Oxidative stress-induced cell death (BSO) assay, MELAS patient fibroblasts; format: cell-based; settings: fibroblasts derived from MELAS patients, 100 μM BSO; read-out: EC50, protection from oxidative stress-induced cell death
Description: as §1

[3] = test system: primary human fibroblasts from patients with LHON; experiment: Oxidative stress-induced cell death (BSO) assay, LHON patient fibroblasts; format: cell-based; settings: fibroblasts derived from LHON patients, 100 μM BSO; read-out: EC50, protection from oxidative stress-induced cell death
Description: as §1

[4] = SAD study pharmacokinetic analysis; format: in vivo, human
Protocol: (§2) Dose escalation to the next dose level was done after evaluation of the safety and the first 24-hour pharmacokinetic results of the previous dose. […] Anticipated exposures at this starting dose were just below the Minimum Anticipated Biological Effect Level (MABEL). Placebo (an in taste and appearance matching oral liquid) was also administered orally on one occasion in the single-ascending dose part and b.i.d. for 7 Days in the MAD part. […] All samples were stored at <-70° C. until analysis. […] For mean value calculations, all values below the limit of quantification (LOQ) were set to zero. […] The non-compartmental pharmacokinetic analysis was performed using Phoenix, Version 6.3 (Pharsight Corporation, Mountain View, Calif., USA). […] The PK parameters were calculated on the basis of the actual blood sampling time points relative to dosing. Selected pharmacokinetic parameters (Cmax, tmax, t1/2, AUClast and AUC0-int) following single-dose administration and selected pharmacokinetic parameters Cmax, tmax, [NT], the accumulation factor (Racc) and time to reach steady state) following multiple dose administration were determined. In urine, the percentage of dose excreted in urine was determined for the single- and multiple-dose administration.

[5] = MAD study pharmacokinetic analysis; format: in vivo, human; settings: for AUCtau (Geomean) / Cmax (Geomean) / tmax* (median) / Racc (accumulation ratio, Geomean): MAD
Protocol: as §2

AUC0-inf ratio (fed/fasted), 90% CI ([4]; 100 mg, fed versus fasted): 0.90 (90% Cl 0.57-1.41)
AUC0-inf (Geomean) ([4]; SAD, KH176 10 mg, fasted): 0.234 µg·h/mL
AUClast (Geomean) ([4]; SAD, KH176 10 mg, fasted): 0.151 µg·h/mL
Cmax (Geomean) ([4]; SAD, KH176 10 mg, fasted): 0.0142 µg/mL
t1/2 (Geomean) ([4]; SAD, KH176 10 mg, fasted): 16.6 h
tmax* (median) ([4]; SAD, KH176 10 mg, fasted): 1.25 h
AUC0-inf (Geomean) ([4]; SAD, KH176 30 mg, fasted): 0.881 µg·h/mL
AUClast (Geomean) ([4]; SAD, KH176 30 mg, fasted): 0.547 µg·h/mL
Cmax (Geomean) ([4]; SAD, KH176 30 mg, fasted): 0.0494 µg/mL
t1/2 (Geomean) ([4]; SAD, KH176 30 mg, fasted): 17.8 h
tmax* (median) ([4]; SAD, KH176 30 mg, fasted): 1.50 h
AUC0-inf (Geomean) ([4]; SAD, KH176 100 mg, fasted): 2.69 µg·h/mL
AUClast (Geomean) ([4]; SAD, KH176 100 mg, fasted): 1.81 µg·h/mL
Cmax (Geomean) ([4]; SAD, KH176 100 mg, fasted): 0.168 µg/mL
t1/2 (Geomean) ([4]; SAD, KH176 100 mg, fasted): 15.4 h
tmax* (median) ([4]; SAD, KH176 100 mg, fasted): 1.25 h
AUC0-inf (Geomean) ([4]; SAD, KH176 100 mg, fed): 2.41 µg·h/mL
AUClast (Geomean) ([4]; SAD, KH176 100 mg, fed): 1.59 µg·h/mL
Cmax (Geomean) ([4]; SAD, KH176 100 mg, fed): 0.117 µg/mL
t1/2 (Geomean) ([4]; SAD, KH176 100 mg, fed): 14.9 h
tmax* (median) ([4]; SAD, KH176 100 mg, fed): 2.50 h
AUC0-inf (Geomean) ([4]; SAD, KH176 300 mg, fasted): 6.89 µg·h/mL
AUClast (Geomean) ([4]; SAD, KH176 300 mg, fasted): 4.83 µg·h/mL
Cmax (Geomean) ([4]; SAD, KH176 300 mg, fasted): 0.497 µg/mL
t1/2 (Geomean) ([4]; SAD, KH176 300 mg, fasted): 14.3 h
tmax* (median) ([4]; SAD, KH176 300 mg, fasted): 1.24 h
AUC0-inf (Geomean) ([4]; SAD, KH176 800 mg, fasted): 18.7 µg·h/mL
AUClast (Geomean) ([4]; SAD, KH176 800 mg, fasted): 11.7 µg·h/mL
Cmax (Geomean) ([4]; SAD, KH176 800 mg, fasted): 1.1 µg/mL
t1/2 (Geomean) ([4]; SAD, KH176 800 mg, fasted): 17.2 h
tmax* (median) ([4]; SAD, KH176 800 mg, fasted): 1.50 h
AUC0-inf (Geomean) ([4]; SAD, KH176 2000 mg, fasted): 41.3 µg·h/mL
AUClast (Geomean) ([4]; SAD, KH176 2000 mg, fasted): 23.9 µg·h/mL
Cmax (Geomean) ([4]; SAD, KH176 2000 mg, fasted): 1.78 µg/mL
t1/2 (Geomean) ([4]; SAD, KH176 2000 mg, fasted): 18.9 h
tmax* (median) ([4]; SAD, KH176 2000 mg, fasted): 1.75 h
t1/2 ([4]; SAD, approximate, across dose groups): approximately 16 h
median tmax ([4]; fasted condition (100 mg)): approximately 1 h
median tmax ([4]; fed condition (100 mg, high calorie/high fat breakfast)): 2.5 h
AUCtau (Geomean) ([5]; KH176 100 mg b.i.d, Day 1): 0.702 µg·h/mL
Cmax (Geomean) ([5]; KH176 100 mg b.i.d, Day 1): 0.0994 µg/mL
tmax* (median) ([5]; KH176 100 mg b.i.d, Day 1): 1.50 h
AUCtau (Geomean) ([5]; KH176 100 mg b.i.d, Day 7): 1.31 µg·h/mL
Cmax (Geomean) ([5]; KH176 100 mg b.i.d, Day 7): 0.152 µg/mL
Racc (accumulation ratio, Geomean) ([5]; KH176 100 mg b.i.d, Day 7): 1.86
tmax* (median) ([5]; KH176 100 mg b.i.d, Day 7): 1.00 h
AUCtau (Geomean) ([5]; KH176 200 mg b.i.d, Day 1): 1.68 µg·h/mL
Cmax (Geomean) ([5]; KH176 200 mg b.i.d, Day 1): 0.251 µg/mL
tmax* (median) ([5]; KH176 200 mg b.i.d, Day 1): 1.75 h
AUCtau (Geomean) ([5]; KH176 200 mg b.i.d, Day 7): 2.22 µg·h/mL
Cmax (Geomean) ([5]; KH176 200 mg b.i.d, Day 7): 0.25 µg/mL
Racc (accumulation ratio, Geomean) ([5]; KH176 200 mg b.i.d, Day 7): 1.32
tmax* (median) ([5]; KH176 200 mg b.i.d, Day 7): 1.50 h
AUCtau (Geomean) ([5]; KH176 400 mg b.i.d, Day 1): 3.6 µg·h/mL
Cmax (Geomean) ([5]; KH176 400 mg b.i.d, Day 1): 0.55 µg/mL
tmax* (median) ([5]; KH176 400 mg b.i.d, Day 1): 1.25 h
AUCtau (Geomean) ([5]; KH176 400 mg b.i.d, Day 7): 4.27 µg·h/mL
Cmax (Geomean) ([5]; KH176 400 mg b.i.d, Day 7): 0.45 µg/mL
Racc (accumulation ratio, Geomean) ([5]; KH176 400 mg b.i.d, Day 7): 1.19
tmax* (median) ([5]; KH176 400 mg b.i.d, Day 7): 1.50 h
AUCtau (one dosing interval, 12 hours), range ([5]; steady state, 100 mg BID): 0.851 to 1.57 µg·h/mL
average concentrations, range ([5]; steady state, 100 mg BID): 70.9 to 130.8 ng/mL
maximum concentration, range ([5]; steady state, 100 mg BID, healthy subjects): 89.4 to 204 ng/mL
SMILES: CC1=C(C)C(=O)C(CC[C@](C)(O)C(=O)N[C@@H]2CCCNC2)=C(C)C1=O [KH176m]
EC50 ([1]; fibroblasts derived from Leigh patients, 100 μM BSO, one day, calcein-AM viability, read-out: EC50 (half maximum effective concentration), protection from oxidative stress-induced cell death): 0.016 µM
EC50 expressed in ng/mL ([1]; in vitro fibroblast assays (Redox assay), fibroblast type not given, values match Leigh): around 5.8 ng/mL
EC50 ([1]; in vitro fibroblast assays (Redox assay), fibroblast type not given, values match Leigh, read-out: EC50): 0.016 µM
EC50 [2]: 0.014 µM
EC50 [3]: 0.004 µM

SMILES: COC1=C(OC)C(=O)C(CCCCCCCCCCO)=C(C)C1=O [Idebenone, reference compound]
EC50 ([1]; Homo sapiens, in vitro fibroblast assays (Redox assay), fibroblast type not given, values match Leigh, read-out: EC50): 1.47 µM

From patent publication US11285130B2, “Treatment of mitochondrial diseases” (Khondrion IP B.V., priority 2017, dated 2022)
